This note sets out measurements from publication PMC11557590 (Nature Communications, 2024).

As usually defined, the Kd is the concentration at which binding is half-saturated. Lower therefore signals tighter binding.

The target in this assay is FLAGELLIN-SENSING 2 (FLS2) (Arabidopsis thaliana, UniProt Q9FL28). As to the kind of experiment: microscale thermophoresis. The format is binding. On the technique in general: Microscale thermophoresis detects binding through changes in fluorescence in a small temperature gradient.
Sequence of FLAGELLIN-SENSING 2 (FLS2) (Q9FL28 24-804): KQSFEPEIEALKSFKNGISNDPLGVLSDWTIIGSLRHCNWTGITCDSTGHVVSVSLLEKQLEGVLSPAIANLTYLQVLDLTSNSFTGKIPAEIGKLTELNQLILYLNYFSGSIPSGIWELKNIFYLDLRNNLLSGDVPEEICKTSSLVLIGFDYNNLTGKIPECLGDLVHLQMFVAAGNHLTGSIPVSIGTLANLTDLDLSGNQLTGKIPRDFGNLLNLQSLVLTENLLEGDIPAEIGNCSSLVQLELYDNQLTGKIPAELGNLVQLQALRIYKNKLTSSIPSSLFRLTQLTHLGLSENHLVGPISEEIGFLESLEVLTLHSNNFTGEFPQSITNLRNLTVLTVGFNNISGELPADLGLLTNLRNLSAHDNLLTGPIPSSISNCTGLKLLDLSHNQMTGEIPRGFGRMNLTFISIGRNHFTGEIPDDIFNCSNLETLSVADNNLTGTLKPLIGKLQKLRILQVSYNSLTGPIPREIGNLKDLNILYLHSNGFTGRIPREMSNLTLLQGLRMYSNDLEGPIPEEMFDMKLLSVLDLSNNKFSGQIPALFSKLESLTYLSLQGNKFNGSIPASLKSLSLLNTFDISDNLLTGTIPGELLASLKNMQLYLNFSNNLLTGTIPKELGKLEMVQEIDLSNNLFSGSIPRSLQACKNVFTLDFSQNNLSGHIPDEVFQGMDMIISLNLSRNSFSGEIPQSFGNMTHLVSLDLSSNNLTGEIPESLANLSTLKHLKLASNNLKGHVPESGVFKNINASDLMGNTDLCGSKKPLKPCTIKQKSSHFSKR

Regarding `C=C(C)COc1ccc2c(C)c(CC(=O)N3CCN(CC(=O)NCCN(C)C)CC3)c(=O)oc2c1C` [FIC04], the Kd came to 93.9 ± 19.5 µM.
